Test results reported in patent US12458025B2 (priority 2020, dated 2025).
Like-named read-outs stand apart in the source and are kept apart here.

Experiments:
[1] = system: Agrobacterium tumefaciens (Gram negative); assay: Bacterial culture growth inhibition, cell density (OD: 600); type: cell-based; settings: for cell density (OD: 600) / growth inhibition significance vs untreated (asterisks): 24 h; for cell density (OD: 600): untreated 1.12; for growth inhibition significance vs untreated (asterisks): N=4
[2] = system: Clavibacter michiganensis (Gram positive); assay: as above; type: cell-based; settings: for cell density (OD: 600): untreated 1.61
[3] = system: Pseudomonas syringae (Gram negative); assay: as above; type: cell-based; settings: 24 h; for growth inhibition significance vs untreated (asterisks): N=4; for cell density (OD: 600): untreated 1.82
Protocol: These compounds were also tested against other phytobacteria. The respective bacterial cultures were grown in the presence of multiple concentrations of a compound (μM) for 24 h, followed by cell density measurements (OD: 600). […]

[4] = system: Candidatus Liberibacter solanacearum (CLso); type: cell-based; settings: re-test, five biological replicates, 72 h; tetracycline 250 ppm
[5] = system: Candidatus Liberibacter solanacearum (CLso); type: in vivo, potato (Solanum tuberosum L. var. Atlantic); settings: foliar spray 10 and 25 μM twice a week, 28 dpi; for CLso titers by qPCR: vs untreated controls; for disease symptoms (chlorosis, necrosis, leaf curling and wilting): vs untreated plants
[6] = system: Candidatus Liberibacter asiaticus (CLas); type: cell-based; settings: 25 μM, 72 h; tetracycline 500 ppm
[7] = cited from earlier work
[8] = system: bacteria, fungi, and the superbug MRSA; settings: agar patch studies; cited from earlier work

Structure (SMILES)	cell density (OD: 600) ([1]; 5 μM)	cell density (OD: 600) ([1]; 10 μM)	cell density (OD: 600) ([1]; 20 μM)	cell density (OD: 600) ([1]; 50 μM)	cell density (OD: 600) ([2]; 5 μM, 24 h)	cell density (OD: 600) ([2]; 10 μM, 24 h)	cell density (OD: 600) ([2]; 20 μM, 24 h)	cell density (OD: 600) ([2]; 50 μM, 24 h)	growth inhibition significance vs untreated (asterisks) ([3]; 5 μM)	cell density (OD: 600) ([3]; 5 μM)	growth inhibition significance vs untreated (asterisks) ([3]; 10 μM)	cell density (OD: 600) ([3]; 10 μM)	cell density (OD: 600) ([3]; 20 μM)	growth inhibition significance vs untreated (asterisks) ([3]; 50 μM)	cell density (OD: 600) ([3]; 50 μM)	inhibition of CLso (FIG. 1b) [4]	CLso titers by qPCR [5]	disease symptoms (chlorosis, necrosis, leaf curling and wilting) [5]	inhibition of CLas (FIG. 1c) [6]	growth inhibition significance vs untreated (asterisks) ([3]; 20 μM)	also measured
COc1ccc(C2COc3c(ccc(O)c3OC)C2)c(OC)c1O (single isomer, unassigned; (-)) [Duartin (−), (−)-duartin]	1.10	1.11	1.10	1.09	1.66	1.61	1.65	1.62	** (highly effective, **P≤0.001)	1.77	** (highly effective, **P≤0.001)	1.78	1.79	** (highly effective, **P≤0.001)	1.76	inhibited	lowered CLso titers	clearly lower level of disease symptoms	inhibited		
CCCNC(=O)NS(=O)(=O)c1ccc(Cl)cc1 [Chlorpropamide]	1.14	1.14	1.17	1.16	1.67	1.65	1.63	1.56	** (highly effective, **P≤0.001)	1.77	* (effective, *P≤0.05)	1.78	1.76	* (effective, *P≤0.05)	1.77					** (highly effective, **P≤0.001)	effective against Agrobacterium tumefaciens [1]: effective; effective against Clavibacter michiganensis [2]: effective
Cl.NCCCCCC(=O)O [Aminocaproic acid hydrochloride, 6-aminohexanoic acid]	1.17	1.16	1.10	1.11	1.64	1.64	1.66	1.59		1.80		1.81	1.80	* (effective, *P≤0.05)	1.78						solubility ([7]; in chloroform): practically insoluble; solubility ([7]; in methanol): sparingly soluble; solubility ([7]; in water, acid, and alkaline solutions): soluble
CN(C)CCOC(=O)C(c1ccccc1)C1(O)CCCC1.Cl (stereo not drawn) [Cyclopentolate hydrochloride]	1.08	1.11	1.11	1.12	1.64	1.60	1.59	1.62	* (effective, *P≤0.05)	1.78		1.79	1.77	** (highly effective, **P≤0.001)	1.73	inhibited	lowered CLso titers	clearly lower level of disease symptoms	inhibited	* (effective, *P≤0.05)	
CN(C)CCOC(c1ccc(Cl)cc1)c1ccccn1.O=C(O)/C=C\C(=O)O (stereo not drawn) [Carbinoxamine maleate]	1.10	1.08	1.14	1.20	1.68	1.63	1.58	1.59		1.81		1.81	1.81	* (effective, *P≤0.05)	1.77						
CCn1nc(C(=O)O)c(=O)c2cc3c(cc21)OCO3 [Cinoxacin, 1-ethyl-1,4-dihydro-4-oxo-[1,3] dioxolo [4,5-g] cinnoline-3-carboxylic acid]	1.17	1.11	1.13	0.94	1.63	1.64	1.59	1.57	* (effective, *P≤0.05)	1.77	* (effective, *P≤0.05)	1.76	1.72	** (highly effective, **P≤0.001)	1.76					** (highly effective, **P≤0.001)	effective against Agrobacterium tumefaciens [1]: effective; growth inhibition significance vs untreated (asterisks) ([1]; 50 μM): * (effective, *P≤0.05)
Cc1cc(O)cc(C)c1Cl [Chloroxylenol, 4-chloro-3,5-dimethylphenol]	1.12	1.06	0.99	0.92	1.59	1.56	1.52	1.38		1.82		1.81	1.76	** (highly effective, **P≤0.001)	1.30	inhibited	lowered CLso titers	clearly lower level of disease symptoms	inhibited	** (highly effective, **P≤0.001)	time to kill a wide variety of microbes [8]: ≤ 15 s; effective against Agrobacterium tumefaciens [1]: effective; growth inhibition significance vs untreated (asterisks) ([1]; 50 μM): * (effective, *P≤0.05); effective against Clavibacter michiganensis [2]: effective; growth inhibition significance vs untreated (asterisks) ([2]; 50 μM, 24 h, N=4): ** (highly effective, **P≤0.001)
